Test results published in paper PMC9393165 (Scientific Reports, 2022).
Read-outs that look alike come from different tables or passages of the source. Marks after values point to notes of the source that are not given here.

Test: Tacrolimus whole blood concentration, trough and 12-h AUC after kidney transplantation (chemiluminescent microparticle immunoassay)
Assay type: in vivo, human
Details: for C0 / AUC: human, whole blood, oral
Procedure: This prospective, randomized, double-blind, placebo-controlled study was carried out in four parallel groups of KTRs. […] The randomization schedule was concealed in sequentially numbered, sealed, opaque envelopes, and kept in a locked cabinet in the central pharmacy of Siriraj Hospital. Envelopes were opened sequentially only after enrollment of each participant. The diltiazem and placebo containers, which were issued with a medication number and assigned to consecutive patients in a sequential order, were tamper-proof, equal in weight, and similar in appearance. A pharmacist not involved in the care of the study patients did the randomization, distributed the study agents, and held the trial codes, which were disclosed after the study. Physicians, nurses, other care providers, and the study patients were unaware of the group allocations.
All participants received oral, immediate-release tacrolimus (Prograf®; Astellas, Kerry, Ireland). According to Siriraj Hospital protocol, the initial dose (0.05 mg/kg every 12 h) of tacrolimus was started 2 days before KT (day − 2) and subsequently adjusted after KT based on efficacy and toxicity and to maintain morning trough concentrations of 7 to 10 ng/mL in standard risk patients and 10 to 12 ng/mL in high-risk patients during the first week after transplantation. Participants also received either mycophenolate mofetil (Cellcept®; F Hoffmann-La Roche Ltd, Basel, Switzerland or Immucept®; Intas Pharmaceuticals Ltd., Gujarat, India) or mycophenolate sodium (Myfortic®; Novartis Pharma Stein, Switzerland for Novartis AG, Basel, Switzerland) at the dosage equivalent to 2 g/day of mycophenolate mofetil. A tapered corticosteroid regimen was administered consisting of an intravenous bolus of 500 mg of methylprednisolone (Solu-medrol®; Novartis Pharma Stein, Switzerland for Novartis AG, Basel, Switzerland) on day 0, 250 mg on day 1, 125 mg on day 2 followed by 40 mg/day of prednisolone on day 4 after KT. The subsequent prednisolone doses were gradually tapered thereafter. Induction therapy with basiliximab (Simulect®; Novartis Pharma AG, Basel, Switzerland) was allowed.
All patients received a fixed dose of omeprazole 40 mg/day.
[…] Samples were collected in EDTA tubes and stored at 4 degrees Celsius until analysis. Whole blood tacrolimus concentrations were determined within the same day of blood collection by using a chemiluminescent microparticle immunoassay method with […] system® i2000 (Abbott, Abbott Diagnostic, USA). The method was linear in the concentration range up to 30 ng/mL, the limits of quantification were 0.8 ng/mL, and the coefficient of variation of within run precision and between run precision were less than 10%. Mean recovery was 100 ± 10% according to the manufacturer’s information.
For calculation of AUC/D and C0/D, values of AUC and C0 were dose-adjusted by dividing the observed values by the dose recorded on the day of blood collection. Early-morning blood pressures were measured on the same day of blood collection for pharmacokinetic analysis by a ward nurse as part of a routine examination, during rest in a seated position with a calibrated and well-maintained automatic sphygmomanometer. Delayed graft function (DGF) was defined as failure of the kidney graft to function immediately, with the need for dialysis in the first 7 days post-KT. Episode of biopsy-proven acute rejection (BPAR) during 3 months post-KT was diagnosed based on histologic findings in indication kidney graft biopsy according to Banff 2015 criteria.

[1] = day 1 post-transplantation, CYP3A5 expressers, diltiazem 30 mg every 12 h (n = 11), median (IQR)
[2] = day 1 post-transplantation, CYP3A5 expressers, placebo (n = 12), median (IQR)
[3] = day 1 post-transplantation, CYP3A5 non-expressers, diltiazem 30 mg every 12 h (n = 9), median (IQR)
[4] = day 1 post-transplantation, CYP3A5 non-expressers, placebo (n = 8), median (IQR)
[5] = day 3 post-transplantation, CYP3A5 expressers, diltiazem 30 mg every 12 h (n = 11), median (IQR)
[6] = day 3 post-transplantation, CYP3A5 expressers, placebo (n = 12), median (IQR)
[7] = day 3 post-transplantation, CYP3A5 non-expressers, diltiazem 30 mg every 12 h (n = 9), median (IQR)
[8] = day 3 post-transplantation, CYP3A5 non-expressers, placebo (n = 8), median (IQR)
[9] = day 7, all 40 KTRs, median (IQR)
[10] = day 7 post-transplantation, CYP3A5 expressers, diltiazem 30 mg every 12 h (n = 11), median (IQR)
[11] = day 7 post-transplantation, CYP3A5 expressers, placebo (n = 12), median (IQR)
[12] = day 7 post-transplantation, CYP3A5 non-expressers, diltiazem 30 mg every 12 h (n = 9), median (IQR)
[13] = day 7 post-transplantation, CYP3A5 non-expressers, placebo (n = 8), median (IQR)

C=CC[C@@H]1/C=C(\C)C[C@H](C)C[C@H](OC)[C@H]2O[C@@](O)(C(=O)C(=O)N3CCCC[C@H]3C(=O)O[C@H](/C(C)=C/[C@@H]3CC[C@@H](O)[C@H](OC)C3)[C@H](C)[C@@H](O)CC1=O)[C@H](C)C[C@@H]2OC [Tacrolimus]
C0/D [1]: 3.3 (2.6, 4.5) ng/mL per mg | C0/Daily dose [1]: 1.6 (1.3, 2.3) ng/mL per mg/day | C0/D [2]: 2.2 (1.3, 2.8) ng/mL per mg | C0/Daily dose [2]: 1.1 (0.6, 1.4) ng/mL per mg/day | C0/D [3]: 3.8 (2.7, 7.2)^c ng/mL per mg | C0/Daily dose [3]: 1.9 (1.3, 3.6)^c ng/mL per mg/day | C0/D [4]: 3.8 (2.0, 5.0) ng/mL per mg | C0/Daily dose [4]: 1.9 (1.0, 2.5) ng/mL per mg/day | C0/D [5]: 3.7 (2.4, 4.5)^c ng/mL per mg | C0/Daily dose [5]: 1.8 (1.2, 2.2)^c ng/mL per mg/day | C0/D [6]: 1.8 (1.1, 2.0) ng/mL per mg | C0/Daily dose [6]: 0.9 (0.6, 1.0) ng/mL per mg/day | C0/D [7]: 6.4 (4.1, 8.8)^c ng/mL per mg | C0/Daily dose [7]: 3.2 (2.0, 4.4)^c ng/mL per mg/day | C0/D [8]: 3.4 (2.7, 5.8)^c ng/mL per mg | C0/Daily dose [8]: 1.7 (1.4, 2.9)^c ng/mL per mg/day | AUC/D [9]: 44.9 (37.1, 65.3) ng*h/mL per mg | C0/D [9]: 2.5 (1.8, 3.7) ng/mL per mg | C0, range (day 7, all 40 KTRs, range): 5.0 to 13.2 ng/mL | AUC/D (dose-adjusted area under the 12-h curve) (day 7 post-transplantation, CYP3A5 expressers, diltiazem 30 mg every 12 h (EXdtz, n = 11), median (IQR)): 43.6 (37.0, 50.5) ng*h/mL per mg | AUC/D (dose-adjusted area under the 12-h curve) (day 7 post-transplantation, CYP3A5 expressers, diltiazem 30 mg every 12 h (EXdtz, n = 11), median (IQR), listed as tacrolimus): 43.6 ng*h/mL per mg | C0/D [10]: 1.9 (1.8, 3.2) ng/mL per mg | C0/Daily dose [10]: 1.0 (0.9, 1.6) ng/mL per mg/day | AUC/D (dose-adjusted area under the 12-h curve) (day 7 post-transplantation, CYP3A5 expressers, placebo (EXplb, n = 12), median (IQR)): 34.9 (31.6, 38.5) ng*h/mL per mg | AUC/D (dose-adjusted area under the 12-h curve) (day 7 post-transplantation, CYP3A5 expressers, placebo (EXplb, n = 12), median (IQR), listed as tacrolimus): 34.9 ng*h/mL per mg | C0/D [11]: 2.0 (1.4, 2.5) ng/mL per mg | C0/Daily dose [11]: 1.0 (0.7, 1.2) ng/mL per mg/day | AUC/D (dose-adjusted area under the 12-h curve) (day 7 post-transplantation, CYP3A5 non-expressers, diltiazem 30 mg every 12 h (NEdtz, n = 9), median (IQR)): 71.1 (54.9, 100.7)^c ng*h/mL per mg | AUC/D (dose-adjusted area under the 12-h curve) (day 7 post-transplantation, CYP3A5 non-expressers, diltiazem 30 mg every 12 h (NEdtz, n = 9), median (IQR), listed as tacrolimus): 71.1 ng*h/mL per mg | C0/D [12]: 4.2 (2.8, 6.0)^c ng/mL per mg | C0/Daily dose [12]: 2.1 (1.4, 3.0)^c ng/mL per mg/day | AUC/D (dose-adjusted area under the 12-h curve) (day 7 post-transplantation, CYP3A5 non-expressers, placebo (NEplb, n = 8), median (IQR)): 49.4 (43.0, 62.9)^c ng*h/mL per mg | AUC/D (dose-adjusted area under the 12-h curve) (day 7 post-transplantation, CYP3A5 non-expressers, placebo (NEplb, n = 8), median (IQR), listed as tacrolimus): 49.4 ng*h/mL per mg | C0/D [13]: 2.8 (2.5, 3.4) ng/mL per mg | C0/Daily dose [13]: 1.4 (1.2, 1.7) ng/mL per mg/day | C0 (30 mg, day 1 post-transplantation, CYP3A5 expressers, diltiazem 30 mg every 12 h (n = 11), mean ± SD): 10.9 ± 3.7 ng/mL | C0 (30 mg, day 1 post-transplantation, CYP3A5 non-expressers, diltiazem 30 mg every 12 h (n = 9), mean ± SD): 13.1 ± 7.4 ng/mL | C0 (30 mg, day 3 post-transplantation, CYP3A5 expressers, diltiazem 30 mg every 12 h (n = 11), median (IQR)): 9.3 ng/mL | C0 (30 mg, day 3 post-transplantation, CYP3A5 non-expressers, diltiazem 30 mg every 12 h (n = 9), median (IQR)): 11.9 ng/mL | C0 (30 mg, day 7 post-transplantation, CYP3A5 expressers, diltiazem 30 mg every 12 h (n = 11), mean ± SD): 7.4 ± 2.1 ng/mL | AUC (30 mg, day 7 post-transplantation, CYP3A5 expressers, diltiazem 30 mg every 12 h (n = 11), mean ± SD, read-out: AUC (area under the concentration over 12-h curve)): 138 ± 29.6 ng·h/mL | C0 (30 mg, day 7 post-transplantation, CYP3A5 non-expressers, diltiazem 30 mg every 12 h (n = 9), mean ± SD): 8.4 ± 1.8 ng/mL | AUC (30 mg, day 7 post-transplantation, CYP3A5 non-expressers, diltiazem 30 mg every 12 h (n = 9), mean ± SD, read-out: AUC (area under the concentration over 12-h curve)): 148 ± 25.5 ng·h/mL | C0 (day 1 post-transplantation, CYP3A5 expressers, placebo (n = 12), mean ± SD): 7 ± 3.2 ng/mL | C0 (day 1 post-transplantation, CYP3A5 non-expressers, placebo (n = 8), mean ± SD): 12.6 ± 7.2 ng/mL | C0 [6]: 6.2 ng/mL | C0 [8]: 9.4 ng/mL | C0 (day 7, all 40 KTRs, mean ± SD): 8.4 ± 2.1 ng/mL | AUC (day 7, all 40 KTRs, mean ± SD, read-out: AUC): 154 ± 33.2 ng·h/mL | AUC (day 7, all 40 KTRs, range, read-out: AUC, range): 96.9 to 233 ng·h/mL | C0 (day 7 post-transplantation, CYP3A5 expressers, placebo (n = 12), mean ± SD): 9.2 ± 1.6 ng/mL | AUC (day 7 post-transplantation, CYP3A5 expressers, placebo (n = 12), mean ± SD, read-out: AUC (area under the concentration over 12-h curve)): 169 ± 32.2 ng·h/mL | C0 (day 7 post-transplantation, CYP3A5 non-expressers, placebo (n = 8), mean ± SD): 8.6 ± 2.5 ng/mL | AUC (day 7 post-transplantation, CYP3A5 non-expressers, placebo (n = 8), mean ± SD, read-out: AUC (area under the concentration over 12-h curve)): 159 ± 40.7 ng·h/mL
